Measurements from patent US20250346613A1, “BORIC ACID PROTEASOME INHIBITOR AND USE THEREOF” (ARTIVILA BIOPHARMA, priority 2022, published 2025).

Experiments:
Assay type in all cases: cell-based
MM.1S cell strain = test: Inhibitory activity of cell strain (CellTiter-Glo); details: Homo sapiens, MM1.S, 72 h incubation
Procedure: The cells used in this experiment were MM.1S cell strain and the detection reagent was CellTiter-Glo (Promega). […] The experimental process was described below. MM.1S cells in the logarithmic growth phase and in a good status were digested into individual cells by trypsin, centrifuged to remove the supernatant, and counted. Cells were diluted and 100 μL of cell suspension per well was added to a 96-well enzyme-coated plate at 1×10^5 cells per well. The wells containing only RPMI1640 complete medium were set as blank control. The 96-well plate was transferred to a 37° C. incubator containing 5% CO2 for 24 h of incubation.
The compound was accurately weighed and dissolved in DMSO to a concentration of 10^−2 M. 10 μL of compound was pipetted to 190 μL of DMSO to given a 5×10^−4 M compound. 6 μL of the compound (5×10^−5 M) was pipetted to a new 96-well microplate containing 194 μL of RPMI1640 complete medium and diluted in a 3-fold gradient dilution. 50 μL of the diluted compound was transferred to the 96-well microplate containing the cells such that the final compound concentrations were 5×10^−7 M, 1.67×10^−7 M, 5.55×10^−8 M, 1.85×10^−8 M, 6.17×10^−9 M, 2.06×10^−9 M, 6.86×10^−10 M, 2.29×10^−10 M, and 0 M. For the 0 M, no compound was added, and the same concentration of DMSO was added. The marketed drug bortezomib was used as a positive control. The 96-well microplate added with compounds was placed in the 37° C. incubator for 72 h of incubation.
At the predetermined detection time, the 96-well microplate to be detected was placed at room temperature, added with 40 μL of detection reagent (CellTiter-Glo) per well, and covered with a dark lid or piece of aluminium foil. The contents were mixed on an orbit oscillator for 10 min for complete cell lysis, with a vibration speed of 150 rpm. Luminescence values were detected on a multifunctional microplate reader (BioTek Synergy H1 Hybrid Multi-Mode Reade).
The data were exported and the percentage inhibition was calculated according to the following formula: Inhibition rate=(maximum signal value-compound signal value)/(maximum signal value−blank signal value)×100%, • wherein maximum signal was obtained from alone DMSO-treated cells, and blank signal was obtained from wells containing only culture medium.

[1] = biological target: T1, β5c subunit of the 20S proteasome (Homo sapiens, UniProt P20618+P28074); test: Proteasome inhibitory activity, β5c subunit (Raji cells treated with compound, lysed, Suc-LLVY-AMC substrate); details: proteasome from Raji cells incubated with compound 4 h
T1 construct: The proteasome tested in the present disclosure was derived from Raji cells; endogenous in cells; host or cells: Raji cells
Source text: (§1) In the present disclosure, the fluorescent peptide substrate Ac-Ala-Asn-Trp-AMC (abbreviated as Ac-ANW-AMC) and the […] kit containing a fluorescent peptide substrate Suc-Leu-Leu-Val-Tyr-AMC (abbreviated as Suc-LLVY-AMC) (Promega, Item No. G8660) were used to detect the activities of the β5i subunit and β5c subunit of the 20S proteasome, respectively.
(§2) The proteasome tested in the present disclosure was derived from Raji cells, the fluorescent substrate Ac-ANW-AMC was purchased from Roche company, and other reagents were purchased from Sigma company. The experimental system was divided into two parts of cell lysis system and enzyme reaction system. […] The starting concentration of the compound (inhibitor) was 1 μM. It was diluted in a 3-fold serial dilution to a total of 8 concentrations, that is, the administration concentration can be 1 μM, 0.333 μM, 0.111 μM . . . , respectively, and the specific experimental process was described below.
(§3) Raji cells (1×10^6 cells) cryopreserved in liquid nitrogen were thawed rapidly in a water bath at 37° C. The cell pellet was transferred to a 15 mL centrifuge tube, added with 9 mL of fresh medium (Gibco RPMI1640 added with 10% fetal bovine serum and 1% double antibiotics), centrifuged at 120 g for 5 min, inoculated to 25 mL cell culture flasks, and passaged once every 2-3 days.
(§4) The compound was weighed and dissolved in DMSO to a concentration of 10 mM. The compound was then sequentially diluted to concentrations of 200 μM, 66.67 μM, 22.22 μM, 7.41 μM, 2.47 μM, 0.82 μM, 0.27 μM, and 0.091 μM with fresh medium. Raji cells in a good growth status were inoculated into a 48-well cell culture plate at 7×10^5 cells/mL.
(§5) Raji cells in a good growth status were taken and counted. They were then inoculated to a 48-well cell culture plate at 7×10^5 cells/mL. Each 5 μL of the various concentrations of diluted compounds above were taken and added to the culture plate inoculated with cells, and the lowest concentration of compound was 0 μM. The drug bortezomib (Velcade) and ONX-0914 were used as the positive control compounds. All cells were incubated at 37° C. for 4 h.
(§6) The compound-treated cells were sequentially transferred into 1.5 mL centrifuge tubes, centrifuged at 10000 rpm for 2 min, and the supernatants were removed. The cell pellet was resuspended in 1 mL of PBS, centrifuged at 10000 rpm for 2 min, and the supernatant was removed. Cells were resuspended by adding 100 μL of cell lysate (50 mM Tris of pH 7.5, 150 mM NaCl, 5 mM MgCl2, 5 mM ATP, 1 mM DTT, 0.01% NP-40, 1 mM Digitonin, and Cocktail), placed in an ice bath for 30 min, and centrifuged at 13000 rpm for 10 min.
(§7) 2 mg of fluorescent peptide substrate AC-ANW-AMC was dissolved in 424.7 μL of DMSO to obtain an 8 mM stock solution, and stored at −20° C. The stock solution was diluted 100-fold to a final concentration of […] for use in the reaction system. The fluorescent peptide substrate Suc-LLVY-AMC was prepared according to the instructions of the Promega kit.
(§8) Each 20 μL of the prepared proteasome solution above was added to a 96-well white luciferase microplate and added with 25 μL of AC-ANW-AM substrate buffer solution (50 mM Tris of pH 7.5, 150 mM NaCl, 5 mM MgCl2, 5 mM ATP, 80 uM Ac-ANW-AMC and 1 mM DTT) and 25 μL of Suc-LLVY-AMC substrate buffer solution for 10 min of reaction at 37° C. in the dark. Fluorescence values were read at 345 nm/445 nm by using a fluorence microplate reader.
(§9) The data were exported and the inhibition rate in percentage was calculated according to the following formula: Inhibition rate=(maximum signal value-compound signal value)/(maximum signal value−blank signal value)×100%.
(§10) Where the maximum signal was obtained from cell lysates treated with DMSO only, and the blank signal was obtained from wells containing only lysates.

[2] = biological target: T2, β5i subunit of the 20S proteasome (Homo sapiens, UniProt P20618+P28062); test: Proteasome inhibitory activity, β5i subunit (Raji cells treated with compound, lysed, Ac-ANW-AMC substrate); details: proteasome from Raji cells incubated with compound 4 h
T2 construct: The proteasome tested in the present disclosure was derived from Raji cells; endogenous in cells; host or cells: Raji cells
Source text: as §1, §2, §3, §4, §5, §6, §7, §8, §9, §10

IC50 (MM.1S cell strain) [nM] | IC50 [1] [nM] | IC50 [2] [nM] | SMILES
≤ 50 | ≤ 50 | ≤ 50 | CC(C)C(C(=O)NCc1ccc(Cl)cc1Cl)C(=O)N[C@@H](Cc1coc2ccccc12)B(O)O (stereo partly drawn) [Example 89, ((1R)-2-(benzofuran-3-yl)-1-(2-((2,4-dichlorobenzyl)carbamoyl)-3-methylbutanamido)ethyl)boric acid]
> 500 | 50 to 200 | ≤ 50 | COc1cccc(CNC(=O)C(CC2CCCCC2)C(=O)N[C@@H](Cc2ccc(C)cc2)B(O)O)c1 (stereo partly drawn) [Example 83, ((1R)-1-(2-(cyclohexylmethyl)-3-((3-methoxybenzyl)amino)-3-oxopropionamido)-2-(p-tolyl)ethyl)boric acid]
50 to 200 | 50 to 200 | ≤ 50 | Cc1ccc(C[C@H](NC(=O)C(C(=O)NCc2ccc(Cl)cc2Cl)C(C)C)B(O)O)cc1 (stereo partly drawn) [Example 88, ((1R)-1-(2-((2,4-dichlorobenzyl)carbamoyl)-3-methylbutanamido)-2-(p-tolyl)ethyl)boric acid]
≤ 50 | 50 to 200 | ≤ 50 | O=C(NCc1ccc2[nH]ccc2c1)C(Cc1ccccc1)C(=O)N[C@@H](Cc1coc2ccccc12)B(O)O (stereo partly drawn) [Example 91, ((1R)-1-(3-(((1H-indol-5-yl)methyl)amino)-2-benzyl-3-oxopropionamido)-2-(benzofuran-3-yl)ethyl)boric acid]
≤ 50 | ≤ 50 | ≤ 50 | COc1cccc(CNC(=O)C(CC2CCCCC2)C(=O)N[C@@H](Cc2coc3ccccc23)B(O)O)c1 (stereo partly drawn) [Example 84, ((1R)-2-(benzofuran-3-yl)-1-(2-(cyclohexylmethyl)-3-((3-methoxybenzyl)amino)-3-oxopropionamido)ethyl)boroic acid]
≤ 50 | ≤ 50 | ≤ 50 | Cc1ccc(C[C@H](NC(=O)C(C)C(=O)NCc2cccc(C(F)(F)F)c2)B(O)O)cc1 (stereo partly drawn) [Example 92, ((1R)-1-(2-methyl-3-oxo-3-((3-(trifluoromethyl)benzyl)amino)propionamido)-2-(p-tolyl)ethyl)boric acid]

More lines, now with the values behind:

SMILES | IC50 (MM.1S cell strain) [nM] | IC50 [1] [nM] | IC50 [2] [nM]
COc1cccc(CNC(=O)CC(=O)N[C@@H](Cc2coc3ccccc23)B(O)O)c1 [Example 46, (R)-(2-(benzofuran-3-yl)-1-(3-((3-methoxybenzyl)amino)-3-oxopropionamido)ethyl)boric acid] | ≤ 50 | ≤ 50 | ≤ 50
CC(C(=O)Nc1ccccc1)C(=O)N[C@@H](Cc1ccccc1)B(O)O (stereo partly drawn) [Example 47, ((1R)-1-(2-methyl-3-oxo-3-(phenylamino)propionylamino)-2-phenylethyl)boronic acid] | 200 to 500 | 50 to 200 | ≤ 50
Cc1ccc(C[C@H](NC(=O)C(C)C(=O)Nc2ccccc2)B(O)O)cc1 (stereo partly drawn) [Example 40, ((1R)-1-(2-methyl-3-oxo-3-(phenylamino)propionamido)-2-(p-tolyl)ethyl)boric acid] | 50 to 200 | 50 to 200 | ≤ 50
COc1cccc(CNC(=O)C(C)C(=O)N[C@@H](Cc2ccc(-c3ccccc3)cc2)B(O)O)c1 (stereo partly drawn) [Example 36, ((1R)-2-([1,1′-biphenyl]-4-yl)-1-(3-((3-methoxybenzyl)amino)-2-methyl-3-oxopropionamido)ethyl)boric acid] | ≤ 50 | ≤ 50 | ≤ 50
COc1cccc(CNC(=O)C(Cc2ccccc2)C(=O)N[C@@H](Cc2ccc(C)cc2)B(O)O)c1 (stereo partly drawn) [Example 65, ((1R)-1-(2-benzyl-3-((3-methoxybenzyl)amino)-3-oxopropionamido)-2-(p-tolyl)ethyl)boric acid] | ≤ 50 | ≤ 50 | ≤ 50
O=C(CC(=O)N[C@@H](Cc1coc2ccccc12)B(O)O)NCc1cccc(-c2ccccc2)c1 [Example 22, (R)-(1-(3-(([1,1′-biphenyl]-3-ylmethyl)amino)-3-oxopropionamido)-2-(benzofuran-3-yl)ethyl)boric acid] | ≤ 50 | ≤ 50 | ≤ 50
CC(C)C[C@H](NC(=O)C(C)C(=O)NCc1ccccc1)B(O)O (stereo partly drawn) [Example 28, ((1R)-1-(3-(benzylamino)-2-methyl-3-oxopropionamido)-3-methylbutyl)boric acid] | 50 to 200 | 50 to 200 | 50 to 200
COc1cccc(CCNC(=O)C(C)C(=O)N[C@@H](Cc2ccc(C)cc2)B(O)O)c1 (stereo partly drawn) [Example 62, ((1R)-1-(3-((3-methoxyphenylethyl)amino)-2-methyl-3-oxopropionamido)-2-(p-tolyl)ethyl)boric acid] | ≤ 50 | ≤ 50 | ≤ 50
CC(C(=O)NCc1cccc(-c2ccccc2)n1)C(=O)N[C@@H](Cc1coc2ccccc12)B(O)O (stereo partly drawn) [Example 57, ((1R)-2-(benzofuran-3-yl)-1-(2-methyl-3-oxo-3-(((6-phenylpyridin-2-yl)methyl)amino)propionamido)ethyl)boric acid] | ≤ 50 | ≤ 50 | ≤ 50
CC(C)C[C@H](NC(=O)/C=C/C(=O)NCc1cccc(-c2ccccc2)n1)B(O)O [Example 13, (R,E)-(3-methyl-1-(4-oxo-4-(((6-phenylpyridin-2-yl)methyl)amino)but-2-enamido)butyl)boric acid] | 50 to 200 | 50 to 200 | 50 to 200
Cc1ccc(C[C@H](NC(=O)C(C)C(=O)NC2CCCCC2)B(O)O)cc1 (stereo partly drawn) [Example 42, ((1R)-1-(3-(cyclohexylamino)-2-methyl-3-oxopropionamido)-2-(p-tolyl)ethyl)boric acid] | 50 to 200 | ≤ 50 | ≤ 50
Cc1ccc(CNC(=O)/C=C/C(=O)N[C@@H](Cc2ccc(C)cc2)B(O)O)cc1 [Example 10] | 200 to 500 | 50 to 200 | 50 to 200
